Source: ChEMBL document CHEMBL1921771, “Structure-activity relationships of ganoderma acids from Ganoderma lucidum as aldose reductase inhibitors” (Bioorg Med Chem Lett, 2011)

The compounds below were run against Aldo-keto reductase family 1 member B1 (Homo sapiens, UniProt P15121) (assay: Inhibition of recombinant human aldose reductase using dl-glyceraldehyde as substrate after 10 mins by spectrophotometry).

Compound	IC50 [µM]
COC(=O)C(C)CC(=O)/C=C(\C)[C@H]1C[C@H](O)[C@@]2(C)C3=C(C(=O)C[C@]12C)[C@@]1(C)CCC(=O)C(C)(C)[C@@H]1C[C@@H]3O (some centres not stated) [METHYL GANODERENATE A]	> 184
C[C@H](CC(=O)C[C@@H](C)[C@H]1CC(=O)[C@@]2(C)C3=C(C(=O)C[C@]12C)[C@@]1(C)CCC(=O)C(C)(C)[C@@H]1C[C@@H]3O)C(=O)O [GANODERIC ACID C1]	> 194
CC(CC(=O)C[C@@H](C)[C@H]1CC(=O)[C@@]2(C)C3=C(C(=O)[C@@H](O)[C@]12C)[C@@]1(C)CC[C@H](O)C(C)(C)[C@@H]1CC3=O)C(=O)O (some centres not stated) [GANODERIC ACID C6]	> 193
CC(CC(=O)C[C@@H](C)[C@H]1CC(=O)[C@@]2(C)C3=C(C(=O)[C@@H](O)[C@]12C)[C@@]1(C)CC[C@H](O)C(C)(C)[C@@H]1C[C@@H]3O)C(=O)O (some centres not stated) [GANODERIC ACID G]	> 188
CC(=O)O[C@@H]1C(=O)C2=C(C(=O)C[C@H]3C(C)(C)[C@@H](O)CC[C@]23C)[C@]2(C)C(=O)C[C@H]([C@H](C)CC(=O)CC(C)C(=O)O)[C@@]12C (some centres not stated) [GANODERIC ACID H]	> 175
CC(CC(=O)C[C@@H](C)[C@H]1CC(=O)[C@@]2(C)C3=C([C@@H](O)C[C@]12C)[C@@]1(C)CCC(=O)C(C)(C)[C@@H]1C[C@@H]3O)C(=O)O (some centres not stated) [GANODERIC ACID DF]	22.8
CC(CC(=O)C[C@@H](C)[C@H]1C[C@H](O)[C@@]2(C)C3=C(C(=O)C[C@]12C)[C@@]1(C)CC[C@H](O)C(C)(C)[C@@H]1CC3)C(=O)O (some centres not stated) [GANOLUCIDIC ACID B]	> 199
CC(CC(=O)C[C@@H](C)[C@H]1C[C@H](O)[C@@]2(C)C3=C(C(=O)C[C@]12C)[C@@]1(C)CCC(=O)C(C)(C)[C@@H]1CC3=O)C(=O)O (some centres not stated) [GANODERIC ACID J]	> 194
COC(=O)[C@H](C)CC(=O)C[C@@H](C)[C@H]1C[C@H](O)[C@@]2(C)C3=C(C(=O)C[C@]12C)[C@@]1(C)CC[C@H](O)C(C)(C)[C@@H]1C[C@@H]3O	> 184
CC(=O)O[C@@H]1C(=O)C2=C([C@@H](O)C[C@H]3C(C)(C)[C@@H](O)CC[C@]23C)[C@]2(C)C(=O)C[C@H]([C@H](C)CC(=O)CC(C)C(=O)O)[C@@]12C (some centres not stated) [GANODERIC ACID K]	> 174
CC(CC(=O)C[C@@H](C)[C@H]1CC(=O)[C@@]2(C)C3=C(C(=O)C[C@]12C)[C@@]1(C)CC[C@H](O)C(C)(C)[C@@H]1C[C@@H]3O)C(=O)O (some centres not stated) [GANODERIC ACID B]	> 193
COC(=O)C(C)CC(=O)C[C@@H](C)[C@H]1C[C@H](O)[C@@]2(C)C3=C(C(=O)C[C@]12C)[C@@]1(C)CCC(=O)C(C)(C)[C@@H]1C[C@@H]3O (some centres not stated) [METHYL GANODERATE A]	> 189
COC(=O)C(C)CC(=O)C[C@@H](C)[C@H]1CC(=O)[C@@]2(C)C3=C([C@@H](O)C[C@]12C)[C@@]1(C)CCC(=O)C(C)(C)[C@@H]1C[C@@H]3O (some centres not stated)	> 189
C[C@H](CC(=O)C[C@@H](C)[C@H]1C[C@H](O)[C@@]2(C)C3=C(C(=O)C[C@]12C)[C@@]1(C)CC[C@H](O)C(C)(C)[C@@H]1C[C@@H]3O)C(=O)O [GANODERIC ACID C2]	43.8
C[C@H](CC(=O)C[C@@H](C)[C@H]1C[C@H](O)[C@@]2(C)C3=C(C(=O)C[C@]12C)[C@@]1(C)CCC(=O)C(C)(C)[C@@H]1C[C@@H]3O)C(=O)O [GANODERIC ACID A]	> 193
C/C(=C\C(=O)CC(C)C(=O)O)[C@H]1C[C@H](O)[C@@]2(C)C3=C(C(=O)C[C@]12C)[C@@]1(C)CCC(=O)C(C)(C)[C@@H]1C[C@@H]3O (some centres not stated) [GANODERENIC ACID A]	119
CC(CC(=O)C[C@@H](C)[C@H]1CC(=O)[C@@]2(C)C3=C(C(=O)C[C@]12C)[C@@]1(C)CCC(=O)C(C)(C)[C@@H]1C[C@@H]3O)C(=O)O (some centres not stated) [GANODERIC ACID D]	> 195
